Measured values reported in ChEMBL document CHEMBL1201862, “PubChem BioAssay data set” (2004).
Each block holds one molecule with its values, some of them ahead of it. Calls of active or inactive are those of the source.

Legend:
[1] = molecular target: T1, High affinity choline transporter 1 (Homo sapiens, UniProt Q9GZV3); test: human choline transporter blockers, potency – cell-based, 5-point CRC, membrane potential dye, dose response (AID 504840); format: functional
T1 sequence (Q9GZV3 whole entry): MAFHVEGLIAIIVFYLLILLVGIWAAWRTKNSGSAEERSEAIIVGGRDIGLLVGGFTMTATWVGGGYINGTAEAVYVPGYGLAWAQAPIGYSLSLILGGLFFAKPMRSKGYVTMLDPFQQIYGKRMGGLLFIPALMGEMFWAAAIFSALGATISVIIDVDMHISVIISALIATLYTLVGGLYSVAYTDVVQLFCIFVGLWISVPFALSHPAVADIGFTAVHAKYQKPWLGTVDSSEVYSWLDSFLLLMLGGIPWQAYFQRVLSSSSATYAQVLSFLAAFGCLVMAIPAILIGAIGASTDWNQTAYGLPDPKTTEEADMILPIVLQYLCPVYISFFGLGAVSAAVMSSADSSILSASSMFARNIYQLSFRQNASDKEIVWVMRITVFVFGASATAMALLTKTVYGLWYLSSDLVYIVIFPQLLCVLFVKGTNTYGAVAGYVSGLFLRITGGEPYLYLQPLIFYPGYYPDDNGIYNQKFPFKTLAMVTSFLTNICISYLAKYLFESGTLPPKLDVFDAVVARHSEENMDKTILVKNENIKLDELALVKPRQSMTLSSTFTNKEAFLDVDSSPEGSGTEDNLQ

[2] = Luminescence Cell-Based Dose Confirmation HTS to Identify Inhibitors of Platelet Dense Granule Release. [Related pubchem assays: 1663 (Primary HTS), 1678 (Summary of Project)]; format: functional
P388 = test: cells; format: functional; conditions: Mus musculus
P388/ADR = test: cells; format: functional; conditions: Mus musculus
[3] = molecular target: T1, High affinity choline transporter 1; test: human choline transporter blockers, potency – cell-based, 10-point CRC, membrane potential dye, dose response (AID 588401); format: functional;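 note: membrane potential dye fluorescence of choline-evoked depolarization via CHT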
SN12K1 = test: cells; format: functional; conditions: Homo sapiens
[4] = molecular target: T2, Low molecular weight phosphotyrosine protein phosphatase (Homo sapiens, UniProt P24666); format: functional; conditions: read-out: IC50_Mean
T2 sequence (P24666 whole entry): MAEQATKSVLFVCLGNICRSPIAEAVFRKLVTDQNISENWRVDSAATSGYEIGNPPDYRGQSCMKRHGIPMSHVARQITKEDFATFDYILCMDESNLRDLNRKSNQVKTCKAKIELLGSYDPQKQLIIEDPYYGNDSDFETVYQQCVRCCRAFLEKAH

[5] = molecular target: T2, Low molecular weight phosphotyrosine protein phosphatase; format: functional; conditions: read-out: IC50_Mean; remark: listed apart in the source
[6] = molecular target: Ras and Rab interactor 1/Tyrosine-protein kinase ABL1 (Homo sapiens, UniProt P00519+Q13671); format: functional;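 note: biochemical TR-FRET dose-response test measuring inhibition of binding between Rin1 and Abl proteins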
[7] = decrease of insulin promoter-GFP reporter – imaging, high-content screening, mouse beta cells (AID 1628); format: functional; conditions: MIN6
[8] = Fluorescence-based cell-based high throughput dose response assay for inhibitors of the interaction of nucleotide-binding oligomerization domain containing 2 (NOD2) and the receptor-interacting serine-threonine kinase 2 (RIPK2).; format: functional, Homo sapiens; conditions: Homo sapiens
[9] = MIN6 cell viability loss – mouse insulinoma, cytotoxicity control, dose response (AID 2122); format: functional;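 note: confirmatory high-throughput counterscreen run to flag cytotoxic compounds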
Beta Lactamase = Beta Lactamase (Pseudomonas aeruginosa, UniProt Q932Y6); test: BLA reporter interference, concentration series – BLA reporter cells, FRET fluorescence, artefact control for NOD2-RIPK2 interaction inhibitor project, dose response (AID 651552); format: functional, cell-based
INS1 = test: INS-1E survival protection against cytokine death – cell-based, luminescence, retest, dose response (AID 449756); format: functional; conditions: Rattus norvegicus;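 note: cell death triggered by IL-1 beta plus TNF-alpha plus IFN-gamma mixture; protective hits raise ATP signal compared with cytokine alone wells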
[10] = molecular target: T3, Calpain-2 catalytic subunit (Sus scrofa, UniProt P43367); test: m-calpain protease blockers, concentration series – biochemical, fluorogenic peptide substrate, dose response (AID 1420); format: functional
T3 sequence (P43367 whole entry): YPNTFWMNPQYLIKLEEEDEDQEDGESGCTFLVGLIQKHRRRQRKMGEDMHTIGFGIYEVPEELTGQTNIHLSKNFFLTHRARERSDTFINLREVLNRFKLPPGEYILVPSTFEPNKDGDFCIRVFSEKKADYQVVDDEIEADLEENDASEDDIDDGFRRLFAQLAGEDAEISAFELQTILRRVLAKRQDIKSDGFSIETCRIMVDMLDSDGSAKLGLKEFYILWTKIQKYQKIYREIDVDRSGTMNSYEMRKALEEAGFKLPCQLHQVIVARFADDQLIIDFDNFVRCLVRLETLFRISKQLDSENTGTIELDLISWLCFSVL

[11] = molecular target: Photoreceptor-specific nuclear receptor (Homo sapiens, UniProt Q9Y5X4); format: functional, cell-based;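 note: CHO-S cells with Gal4-NCOR and VP16-NR2E3 two-hybrid luciferase reporter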
[12] = molecular target: T4, Short transient receptor potential channel 4 (Mus musculus, UniProt Q9QUQ5); test: block of DAMGO-driven TRPC4 calcium entry – cell-based, HEK293 TRPC4/mu-opioid, Fluo-4 calcium, dose response (AID 434942); format: functional;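 note: potency of inhibitors blocking the TRPC4 calcium response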
T4 sequence (Q9QUQ5 whole entry): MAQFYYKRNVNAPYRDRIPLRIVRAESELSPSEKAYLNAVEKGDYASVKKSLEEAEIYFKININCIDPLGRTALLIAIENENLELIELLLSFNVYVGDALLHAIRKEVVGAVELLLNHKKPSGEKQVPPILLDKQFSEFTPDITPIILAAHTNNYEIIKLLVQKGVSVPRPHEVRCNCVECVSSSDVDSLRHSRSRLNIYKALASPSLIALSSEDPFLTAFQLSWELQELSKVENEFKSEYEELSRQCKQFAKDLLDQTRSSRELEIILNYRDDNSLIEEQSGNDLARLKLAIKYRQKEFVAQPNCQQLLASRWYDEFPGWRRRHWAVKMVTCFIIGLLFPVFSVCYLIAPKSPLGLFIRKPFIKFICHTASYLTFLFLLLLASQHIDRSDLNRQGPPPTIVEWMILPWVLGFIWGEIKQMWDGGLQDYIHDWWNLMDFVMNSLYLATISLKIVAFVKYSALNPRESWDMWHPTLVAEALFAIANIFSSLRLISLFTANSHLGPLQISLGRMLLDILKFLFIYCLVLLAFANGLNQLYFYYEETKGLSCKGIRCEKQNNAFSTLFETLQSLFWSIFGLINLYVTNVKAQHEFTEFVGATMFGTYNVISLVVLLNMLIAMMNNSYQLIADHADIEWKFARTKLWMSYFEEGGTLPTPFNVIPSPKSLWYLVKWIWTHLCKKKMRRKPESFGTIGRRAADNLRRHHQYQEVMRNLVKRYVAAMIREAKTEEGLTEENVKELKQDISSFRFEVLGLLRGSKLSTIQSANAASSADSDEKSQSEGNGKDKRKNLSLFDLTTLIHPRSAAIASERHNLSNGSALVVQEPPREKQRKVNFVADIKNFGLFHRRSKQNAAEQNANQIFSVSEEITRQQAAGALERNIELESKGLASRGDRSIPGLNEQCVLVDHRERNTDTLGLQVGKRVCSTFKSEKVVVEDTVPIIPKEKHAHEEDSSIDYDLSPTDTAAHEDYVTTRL

[13] = molecular target: T5, RNA-binding protein pos-1 (Caenorhabditis elegans, UniProt G5EF15); test: disruptors of C. elegans POS-1 RNA interaction – biochemical, fluorescence polarization, dose response (AID 1964);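 note: purified POS-1 fused to maltose binding protein made in E. coli; potency of compounds blocking POS-1 binding to fluorescent RNA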
T5 sequence (G5EF15 whole entry): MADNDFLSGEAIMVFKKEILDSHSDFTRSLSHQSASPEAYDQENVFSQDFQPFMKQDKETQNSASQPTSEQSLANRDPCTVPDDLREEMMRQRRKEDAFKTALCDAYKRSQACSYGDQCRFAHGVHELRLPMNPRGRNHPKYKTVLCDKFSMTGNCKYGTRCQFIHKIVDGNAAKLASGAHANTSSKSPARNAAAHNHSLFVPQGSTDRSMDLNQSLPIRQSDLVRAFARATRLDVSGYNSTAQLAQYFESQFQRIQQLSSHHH

[14] = molecular target: T6, Zinc finger protein mex-5 (Caenorhabditis elegans, UniProt Q9XUB2); test: potency of MEX-5 RNA-binding blockers – biochemical, C. elegans, fluorescence polarization, dose response (AID 1960)
T6 sequence (Q9XUB2 whole entry): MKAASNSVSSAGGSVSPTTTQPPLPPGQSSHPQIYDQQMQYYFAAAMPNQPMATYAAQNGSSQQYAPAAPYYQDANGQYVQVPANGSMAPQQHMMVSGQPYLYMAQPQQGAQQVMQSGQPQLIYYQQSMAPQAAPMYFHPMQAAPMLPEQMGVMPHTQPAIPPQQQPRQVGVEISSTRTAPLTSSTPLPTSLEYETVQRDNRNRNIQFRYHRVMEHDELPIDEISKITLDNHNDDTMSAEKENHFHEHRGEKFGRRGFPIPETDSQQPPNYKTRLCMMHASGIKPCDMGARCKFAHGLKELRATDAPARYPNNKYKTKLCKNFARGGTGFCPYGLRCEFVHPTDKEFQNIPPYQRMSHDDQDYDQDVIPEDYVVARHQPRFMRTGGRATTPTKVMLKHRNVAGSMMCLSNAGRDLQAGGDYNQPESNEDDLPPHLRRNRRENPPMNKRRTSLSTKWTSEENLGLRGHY

Cytochrome P450 1A2 = molecular target: T7, Cytochrome P450 1A2 (Homo sapiens, UniProt P05177);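 note: PubChem cytochrome P450 panel assay, CYP1A2 panel member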
T7 sequence (P05177 whole entry): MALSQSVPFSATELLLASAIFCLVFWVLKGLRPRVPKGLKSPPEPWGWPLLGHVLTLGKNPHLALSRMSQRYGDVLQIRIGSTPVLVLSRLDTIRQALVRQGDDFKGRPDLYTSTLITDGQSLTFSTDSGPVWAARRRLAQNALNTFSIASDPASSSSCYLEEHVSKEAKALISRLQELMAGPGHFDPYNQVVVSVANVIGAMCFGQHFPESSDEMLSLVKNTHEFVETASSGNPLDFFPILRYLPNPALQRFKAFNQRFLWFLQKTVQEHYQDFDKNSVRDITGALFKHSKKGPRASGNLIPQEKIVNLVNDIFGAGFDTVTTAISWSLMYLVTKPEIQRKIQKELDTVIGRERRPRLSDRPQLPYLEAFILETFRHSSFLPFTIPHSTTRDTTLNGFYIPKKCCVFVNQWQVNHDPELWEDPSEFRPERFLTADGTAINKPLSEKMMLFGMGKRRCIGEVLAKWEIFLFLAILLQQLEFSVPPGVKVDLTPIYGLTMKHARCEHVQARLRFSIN

Genome polyprotein = Genome polyprotein (dengue virus type 2, UniProt P29990); test: flavivirus cap methylation enzyme inhibition – biochemical, confirmation dose response, primary screen (AID 588689); format: functional
Vero = test: viability of Vero cells under compound – cytotoxicity control for flavivirus capping enzyme inhibitors (AID 588742); format: functional; conditions: Chlorocebus sabaeus
Cytochrome P450 2C9 = Cytochrome P450 2C9 (Homo sapiens, UniProt P11712)
[15] = molecular target: Hepatocyte nuclear factor 4-alpha (Homo sapiens, UniProt P41235); format: functional, cell-based;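 note: biochemical luminescence-based dose-response counterscreen measuring inhibition of HNF4 dimerization, run alongside a screen for blockers of ABHD5–perilipin-5 interaction; split luciferase complementation of HNF4 fusion proteins in cell lysate measuring dimerization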
Fatty acid synthase [16] = molecular target: T8, Fatty acid synthase (Homo sapiens, UniProt P49327); test: inhibition of human FAS-TE enzyme activity – biochemical, kinetic fluorescence intensity, dose response (AID 624326); format: functional;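 note: rate of fluorescence rise from hydrolysis of a fluorogenic O-methyl fluorescein ester substrate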
Fatty acid synthase [17] = molecular target: T8, Fatty acid synthase; test: inhibition of human FAS-TE enzyme activity – biochemical, endpoint fluorescence intensity, uHTS hits, dose response (AID 624327); format: functional;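 note: fluorescence from hydrolysis of an O-methyl fluorescein acyl ester substrate by the enzyme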

Chain of Beta Lactamase (Q932Y6 whole entry): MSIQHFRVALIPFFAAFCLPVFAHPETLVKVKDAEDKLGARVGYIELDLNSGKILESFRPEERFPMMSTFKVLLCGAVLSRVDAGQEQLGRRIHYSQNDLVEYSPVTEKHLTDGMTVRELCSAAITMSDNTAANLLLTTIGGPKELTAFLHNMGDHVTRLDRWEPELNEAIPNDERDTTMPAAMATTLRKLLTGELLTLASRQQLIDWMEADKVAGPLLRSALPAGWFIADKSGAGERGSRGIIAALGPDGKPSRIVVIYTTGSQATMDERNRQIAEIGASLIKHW
Chain of Photoreceptor-specific nuclear receptor (Q9Y5X4 whole entry, the tested form may be a part): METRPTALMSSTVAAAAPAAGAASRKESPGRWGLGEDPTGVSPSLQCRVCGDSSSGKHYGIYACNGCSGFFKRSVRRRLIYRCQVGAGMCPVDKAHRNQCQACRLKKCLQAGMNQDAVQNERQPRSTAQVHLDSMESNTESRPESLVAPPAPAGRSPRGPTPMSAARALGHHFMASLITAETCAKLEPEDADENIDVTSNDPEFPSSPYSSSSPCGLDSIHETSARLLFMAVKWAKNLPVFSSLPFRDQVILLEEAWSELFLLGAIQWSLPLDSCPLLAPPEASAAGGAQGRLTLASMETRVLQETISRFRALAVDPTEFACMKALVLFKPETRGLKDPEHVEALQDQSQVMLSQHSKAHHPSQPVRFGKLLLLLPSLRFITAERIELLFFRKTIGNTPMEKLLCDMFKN
T8 sequence (P49327 whole entry): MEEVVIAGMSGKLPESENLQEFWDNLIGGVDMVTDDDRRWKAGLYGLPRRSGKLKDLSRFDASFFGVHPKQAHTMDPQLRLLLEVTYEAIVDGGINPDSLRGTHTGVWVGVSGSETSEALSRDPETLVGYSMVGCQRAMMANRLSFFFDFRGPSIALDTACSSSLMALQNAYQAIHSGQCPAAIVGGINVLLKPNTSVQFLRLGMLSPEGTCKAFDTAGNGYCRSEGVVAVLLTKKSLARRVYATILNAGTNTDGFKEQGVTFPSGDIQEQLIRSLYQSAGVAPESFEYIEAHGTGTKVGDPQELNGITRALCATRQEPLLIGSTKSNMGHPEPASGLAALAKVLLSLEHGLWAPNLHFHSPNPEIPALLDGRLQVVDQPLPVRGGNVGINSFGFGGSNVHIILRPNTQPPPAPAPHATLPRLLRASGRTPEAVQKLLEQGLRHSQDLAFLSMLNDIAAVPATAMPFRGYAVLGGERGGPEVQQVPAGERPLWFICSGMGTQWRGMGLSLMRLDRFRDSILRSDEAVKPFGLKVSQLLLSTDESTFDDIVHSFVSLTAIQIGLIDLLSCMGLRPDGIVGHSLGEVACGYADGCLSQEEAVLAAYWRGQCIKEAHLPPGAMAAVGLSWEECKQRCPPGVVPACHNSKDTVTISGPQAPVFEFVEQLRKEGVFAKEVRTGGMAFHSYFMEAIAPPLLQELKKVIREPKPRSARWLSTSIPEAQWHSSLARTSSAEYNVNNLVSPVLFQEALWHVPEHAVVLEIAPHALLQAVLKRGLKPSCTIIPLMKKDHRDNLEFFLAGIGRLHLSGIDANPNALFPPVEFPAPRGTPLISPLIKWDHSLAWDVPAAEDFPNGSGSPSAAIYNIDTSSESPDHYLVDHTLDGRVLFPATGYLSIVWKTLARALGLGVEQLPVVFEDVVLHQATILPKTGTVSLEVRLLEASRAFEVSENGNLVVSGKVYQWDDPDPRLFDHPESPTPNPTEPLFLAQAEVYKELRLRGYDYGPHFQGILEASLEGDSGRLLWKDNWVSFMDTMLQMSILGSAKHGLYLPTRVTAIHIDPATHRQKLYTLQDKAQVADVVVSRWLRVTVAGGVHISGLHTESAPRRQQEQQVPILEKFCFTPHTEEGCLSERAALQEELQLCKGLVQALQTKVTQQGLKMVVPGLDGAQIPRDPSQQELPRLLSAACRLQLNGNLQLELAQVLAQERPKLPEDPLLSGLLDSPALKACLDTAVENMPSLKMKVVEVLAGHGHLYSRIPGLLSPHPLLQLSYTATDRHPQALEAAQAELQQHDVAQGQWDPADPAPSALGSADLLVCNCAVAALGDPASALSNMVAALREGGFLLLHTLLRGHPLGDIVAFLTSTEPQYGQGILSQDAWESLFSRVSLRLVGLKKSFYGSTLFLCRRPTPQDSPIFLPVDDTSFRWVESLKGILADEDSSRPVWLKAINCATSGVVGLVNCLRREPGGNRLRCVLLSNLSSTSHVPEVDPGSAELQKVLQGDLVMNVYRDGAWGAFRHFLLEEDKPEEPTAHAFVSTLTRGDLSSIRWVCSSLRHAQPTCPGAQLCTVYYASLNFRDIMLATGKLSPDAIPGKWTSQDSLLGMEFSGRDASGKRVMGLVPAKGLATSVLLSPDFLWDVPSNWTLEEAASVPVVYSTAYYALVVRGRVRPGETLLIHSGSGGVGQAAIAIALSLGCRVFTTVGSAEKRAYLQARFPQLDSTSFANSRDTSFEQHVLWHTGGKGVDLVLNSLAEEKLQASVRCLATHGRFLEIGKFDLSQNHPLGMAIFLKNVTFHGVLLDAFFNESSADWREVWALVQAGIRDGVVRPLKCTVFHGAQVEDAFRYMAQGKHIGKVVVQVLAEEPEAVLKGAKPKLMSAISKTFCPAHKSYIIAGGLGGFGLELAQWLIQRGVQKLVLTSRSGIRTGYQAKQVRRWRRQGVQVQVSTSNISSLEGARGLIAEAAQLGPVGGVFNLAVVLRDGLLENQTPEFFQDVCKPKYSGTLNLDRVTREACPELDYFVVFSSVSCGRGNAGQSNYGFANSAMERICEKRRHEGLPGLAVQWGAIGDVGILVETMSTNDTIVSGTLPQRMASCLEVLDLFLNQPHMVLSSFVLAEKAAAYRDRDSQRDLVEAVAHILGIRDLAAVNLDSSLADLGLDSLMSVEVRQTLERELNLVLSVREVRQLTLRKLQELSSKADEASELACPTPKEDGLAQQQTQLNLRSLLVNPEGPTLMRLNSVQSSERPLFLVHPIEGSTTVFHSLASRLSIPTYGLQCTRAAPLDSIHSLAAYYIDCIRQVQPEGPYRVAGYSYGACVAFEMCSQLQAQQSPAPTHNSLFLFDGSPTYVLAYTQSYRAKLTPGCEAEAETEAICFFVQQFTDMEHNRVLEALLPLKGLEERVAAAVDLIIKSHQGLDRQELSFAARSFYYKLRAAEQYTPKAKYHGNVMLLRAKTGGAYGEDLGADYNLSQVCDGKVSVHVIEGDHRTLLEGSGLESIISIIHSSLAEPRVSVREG
Chain of Hepatocyte nuclear factor 4-alpha (P41235 whole entry, the tested form may be a part): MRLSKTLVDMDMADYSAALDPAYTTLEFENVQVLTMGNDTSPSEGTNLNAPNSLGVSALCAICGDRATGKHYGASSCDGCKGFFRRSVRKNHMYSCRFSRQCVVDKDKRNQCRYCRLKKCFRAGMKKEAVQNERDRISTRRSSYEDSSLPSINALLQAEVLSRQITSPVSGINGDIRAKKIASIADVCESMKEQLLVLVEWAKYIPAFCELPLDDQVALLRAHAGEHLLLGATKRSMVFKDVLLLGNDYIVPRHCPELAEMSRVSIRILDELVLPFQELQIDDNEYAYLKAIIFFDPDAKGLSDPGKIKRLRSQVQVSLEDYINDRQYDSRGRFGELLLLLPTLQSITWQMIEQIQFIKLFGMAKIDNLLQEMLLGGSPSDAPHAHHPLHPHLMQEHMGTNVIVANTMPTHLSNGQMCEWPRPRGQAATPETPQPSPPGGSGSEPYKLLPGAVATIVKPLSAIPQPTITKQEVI
Chain of Genome polyprotein (P29990 2492-3391 limits assumed): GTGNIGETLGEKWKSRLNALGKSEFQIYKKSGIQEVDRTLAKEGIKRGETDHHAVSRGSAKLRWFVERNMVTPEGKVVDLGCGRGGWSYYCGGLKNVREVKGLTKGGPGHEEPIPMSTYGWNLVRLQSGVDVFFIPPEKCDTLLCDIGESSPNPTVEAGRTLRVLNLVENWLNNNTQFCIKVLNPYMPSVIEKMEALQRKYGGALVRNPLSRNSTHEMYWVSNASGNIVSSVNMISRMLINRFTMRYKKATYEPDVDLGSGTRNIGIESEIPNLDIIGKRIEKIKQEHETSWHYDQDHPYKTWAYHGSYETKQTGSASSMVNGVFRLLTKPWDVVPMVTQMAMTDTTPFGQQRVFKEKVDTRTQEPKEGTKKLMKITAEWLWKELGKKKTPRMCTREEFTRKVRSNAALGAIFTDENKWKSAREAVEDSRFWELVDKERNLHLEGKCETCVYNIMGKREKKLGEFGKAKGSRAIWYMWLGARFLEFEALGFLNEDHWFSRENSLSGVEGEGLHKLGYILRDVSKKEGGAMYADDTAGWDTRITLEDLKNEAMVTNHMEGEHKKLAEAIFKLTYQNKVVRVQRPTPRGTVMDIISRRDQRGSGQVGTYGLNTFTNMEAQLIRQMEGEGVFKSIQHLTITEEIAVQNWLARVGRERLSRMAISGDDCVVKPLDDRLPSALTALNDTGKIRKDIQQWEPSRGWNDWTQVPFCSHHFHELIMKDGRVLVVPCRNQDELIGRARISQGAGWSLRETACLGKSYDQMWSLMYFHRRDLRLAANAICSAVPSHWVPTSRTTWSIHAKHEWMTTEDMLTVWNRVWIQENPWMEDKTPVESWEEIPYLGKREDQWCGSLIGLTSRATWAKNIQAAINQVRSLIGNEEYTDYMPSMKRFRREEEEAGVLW
Chain of Cytochrome P450 2C9 (P11712 whole entry, the tested form may be a part): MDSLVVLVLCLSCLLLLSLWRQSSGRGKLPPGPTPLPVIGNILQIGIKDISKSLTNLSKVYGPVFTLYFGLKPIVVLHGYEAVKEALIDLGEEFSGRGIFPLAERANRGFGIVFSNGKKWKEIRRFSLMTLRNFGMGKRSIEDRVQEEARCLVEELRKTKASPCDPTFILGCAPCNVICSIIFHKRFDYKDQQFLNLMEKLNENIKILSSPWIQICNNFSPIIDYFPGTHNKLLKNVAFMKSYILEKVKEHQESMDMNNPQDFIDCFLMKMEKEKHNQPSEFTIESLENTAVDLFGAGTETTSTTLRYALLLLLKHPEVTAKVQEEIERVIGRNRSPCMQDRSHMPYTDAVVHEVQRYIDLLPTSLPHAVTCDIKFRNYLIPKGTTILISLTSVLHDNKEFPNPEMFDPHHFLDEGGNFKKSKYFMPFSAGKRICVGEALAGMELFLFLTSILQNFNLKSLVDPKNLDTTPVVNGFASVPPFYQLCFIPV

IC50 [1]: 1.66 µM (active) | IC50 [3]: 4.74 µM (active)
Structure (SMILES): CN1CCN(c2oc(Cc3cccc4ccccc34)nc2C#N)CC1

IC50 [10]: > 50 µM (not active) | IC50 [11]: 1.93 µM (active)
Structure (SMILES): O=c1c(Cl)c(N2CCN(c3ccc(F)cc3)CC2)cnn1C12CC3CC(CC(C3)C1)C2

IC50 [4]: 18.4 µM (active) | IC50 [5]: 10.4 µM (active)
Structure (SMILES): COc1cccc(Nc2c(Nc3cccc(OC)c3)c(=O)c2=O)c1

IC50 [1]: 5.6 µM (active) | EC50 [12]: 4.22 µM (active) | IC50 [3]: 10.6 µM (active)
Structure (SMILES): CC1CCCCN1CCCNC(=O)c1nn(C)c2c1CSc1ccccc1-2 (stereo not given)

IC50 [15]: 1.72 µM (active)
Structure (SMILES): CC(C)(C)NC(=O)C(C1CC1)n1c(=O)c(-c2ccco2)nc2ccccc21 (stereo not given)

Continued, molecule first:

Structure (SMILES): Nc1ncnc2c1ncn2C1OC(CO)C(O)C1O (stereo not given)
IC50 [1]: 0.588 µM (active) | EC50 [2]: 1.55 µM (active) | GI50 (P388): 16.4 µM (inactive) | GI50 (P388/ADR): 14.5 µM (inactive) | IC50 [3]: 0.515 µM (active) | GI50 (SN12K1): > 74 µM (inactive)

Structure (SMILES): CN(C)c1nc(N)nc(/C(C#N)=C/C2CC3C=CC2C3)n1 (stereo not given)
IC50 [4]: 10.6 µM (active) | IC50 [5]: 25.2 µM (inactive)

Structure (SMILES): COc1ccc(CCNC(=O)CSc2nc(C)nc3c2c(=O)n(C)c(=O)n3C)cc1OC
IC50 [6]: 13.9 µM (inactive)

Structure (SMILES): Cc1cc(N2CCN(C)CC2)ccc1NC(=O)c1c2c(nc3ccccc13)CCN(Cc1ccccc1)C2
IC50 [7]: 1.37 µM (active) | IC50 [8]: 11 µM (inactive) | IC50 [9]: 1.05 µM (active) | IC50 (Beta Lactamase): 12.3 µM (inactive) | AC50 (INS1): 4.71 µM (active)

Structure (SMILES): COc1cc(/C=N\Nc2ccc([N+](=O)[O-])cc2)ccc1OCC(=O)Nc1ccc(C)c(C)c1
EC50 [13]: > 300 µM (not active) | EC50 [14]: 234 µM (inconclusive) | AC50 (Cytochrome P450 1A2): 7.08 µM (inconclusive) | IC50 (Genome polyprotein): 26.3 µM (active) | CC50 (Vero): > 40 µM (active) | AC50 (Cytochrome P450 2C9): 3.16 µM (inconclusive)

Structure (SMILES): CCCCCc1c(-c2ccc(OC)c(OC)c2)ncn1CCc1ccccc1OC
IC50 [11]: 7.43 µM (active)

Structure (SMILES): CCOC(=O)[C@]12Cc3cc(Cl)ccc3[C@H]1N(C1CCCCC1)C(=O)c1ccccc12
IC50 [8]: 1.45 µM (active) | IC50 (Beta Lactamase): 19.9 µM (inactive) | IC50 (Fatty acid synthase [16]): 4.57 µM (active) | IC50 (Fatty acid synthase [17]): 6.4 µM (active)
